16 compounds from patent US9884849B2, “Fluorinated benzofuranyl-pyrimidine derivatives containing a sulfoximine group” (Bayer Pharma Aktiengesellschaft, priority 2014, dated 2018) can be followed below.

In one experiment the target is T1, CDK2/CycE (Homo sapiens, UniProt P24941).
T1 construct: GST; purchased ProQinase GmbH (Freiburg, Germany); host or cells: insect cells (Sf9)
The experiment is described as follows: CDK2/CycE high ATP kinase assay (Method 2b, TR-FRET). The experiment is classed as biochemical. Particulars: 2 mM ATP. As for the experimental part:
2b. CDK2/CycE High ATP Kinase Assay:
CDK2/CycE-Inhibitory Activity of Compounds of the Present Invention at 2 mM Adenosine-Tri-Phosphate (ATP) was Quantified Employing the CDK2/CycE TR-FRET (TR-FRET=Time Resolved Fluorescence Energy Transfer) Assay as Described in the Following Paragraphs.
Recombinant fusion proteins of GST and human CDK2 and of GST and human CycE, expressed in insect cells (Sf9) and purified by Glutathion-Sepharose affinity chromatography, were purchase from ProQinase GmbH (Freiburg, Germany). As substrate for the kinase reaction biotinylated peptide biotin-Ttds-YISPLKSPYKISEG (C-terminus in amid form) was used which can be purchased e.g. form the company JERINI peptide technologies (Berlin, Germany).
For the assay 50 nl of a 100 fold concentrated solution of the test compound in DMSO was pipetted into a black low volume 384 well microtiter plate (Greiner Bio-One, Frickenhausen, Germany), 2 yl of a solution of CDK2/CycE in aqueous assay buffer [50 mM Tris/HCl pH 8.0, 10 mM MgCl2, 1.0 mM dithiothreitol, 0.1 mM sodium ortho-vanadate, 0.01% (v/v) Nonidet-P40 (Sigma)] were added and the mixture was incubated for 15 min at 22° C. to allow pre-binding of the test compounds to the enzyme before the start of the kinase reaction. […] The concentration of CDK2/CycE was adjusted depending of the activity of the enzyme lot and was chosen appropriate to have the assay in the linear range, typical concentrations were in the range of 15 ng/ml. The reaction was stopped by the addition of 5 yl of a solution of TR-FRET detection reagents (0.2 μM streptavidine-XL665 [Cisbio Bioassays, Codolet, France] and 1 nM anti-RB(pSer807/pSer811)-antibody from BD Pharmingen [#558389] and 1.2 nM LANCE EU-W1024 labeled anti-mouse IgG antibody [Perkin-Elmer, product no. AD0077, as an alternative a Terbium-cryptate-labeled anti-mouse IgG antibody from Cisbio Bioassays can be used]) in an aqueous EDTA-solution (100 mM EDTA, 0.2% (w/v) bovine serum albumin in 100 mM HEPES/NaOH pH 7.0).
The resulting mixture was incubated 1 h at 22° C. to allow the formation of complex between the phosphorylated biotinylated peptide and the detection reagents. Subsequently the amount of phosphorylated substrate was evaluated by measurement of the resonance energy transfer from the Eu-chelate to the streptavidine-XL. Therefore, the fluorescence emissions at 620 nm and 665 nm after excitation at 350 nm were measured in a TR-FRET reader, e.g. a Rubystar (BMG Labtechnologies, Offenburg, Germany) or a Viewlux (Perkin-Elmer). The ratio of the emissions at 665 nm and at […] was taken as the measure for the amount of phosphorylated substrate. The data were normalised (enzyme reaction without inhibitor=0% inhibition, all other assay components but no enzyme=100% inhibition).
(In general: TR-FRET usually uses a lanthanide donor and a delayed reading to cut background.)

The subject of a further experiment is HeLa cells. As to the kind of experiment: Proliferation assay HeLa (Method 3). The experiment is classed as cell-based, human. The note with it: 4 days, crystal violet, read-out: Inhibition of HeLa cell proliferation IC50. As for the experimental part:
Cultivated tumour cells (HeLa, human cervical tumour cells, ATCC CCL-2; NCI-H460, human non-small cell lung carcinoma cells, ATCC HTB-177; A2780, human ovarian carcinoma cells, ECACC #93112519; DU 145, hormone-independent human prostate carcinoma cells, ATCC HTB-81; HeLa-MaTu-ADR, multidrug-resistant human cervical carcinoma cells, EPO-GmbH Berlin; Caco-2, human colorectal carcinoma cells, ATCC HTB-37; B16F10, mouse melanoma cells, ATCC CRL-6475) were plated at a density of 5,000 cells/well (DU145, HeLa-MaTu-ADR), 3,000 cells/well (NCI-H460, HeLa), 2,500 cells/well (A2780), 1,500 cells/well (Caco-2), or 1,000 cells/well (B16F10) in a 96-well multititer plate in 200 μL of their respective growth medium supplemented 10% fetal calf serum. After 24 hours, the cells of one plate (zero-point plate) were stained with crystal violet (see below), while the medium of the other plates was replaced by fresh culture medium (200 μl), to which the test substances were added in various concentrations (0 μM, as well as in the range of 0.001-10 μM; the final concentration of the solvent dimethyl sulfoxide was 0.5%). The cells were incubated for 4 days in the presence of test substances. Cell proliferation was determined by staining the cells with crystal violet: the cells were fixed by adding 20 μl/measuring point of an 11% glutaric aldehyde solution for 15 minutes at room temperature. After three washing cycles of the fixed cells with water, the plates were dried at room temperature. The cells were stained by adding 100 μl/measuring point of a 0.1% crystal violet solution (pH 3.0). After three washing cycles of the stained cells with water, the plates were dried at room temperature. The dye was dissolved by adding 100 μl/measuring point of a 10% acetic acid solution. The extinction was determined by photometry at a wavelength of 595 nm. The change of cell number, in percent, was calculated by normalization of the measured values to the extinction values of the zero-point plate (=0%) and the extinction of the untreated (0 μm) cells (=100%). The IC50 values (inhibitory concentration at 50% of maximal effect) were determined by means of a 4 parameter fit.

Where two headings read alike, the source gives them in different places.

Consider `Cc1cc(CS(C)(=O)=NC#N)cc(Nc2ncc(F)c(-c3ccc(F)c4ccoc34)n2)c1` (single isomer, unassigned) [Example 15, [(3-{[5-Fluoro-4-(4-fluoro-1-benzofuran-7-yl)pyrimidin-2-yl]amino}-5-methylbenzyl)-(methyl)oxido-λ^6-sulfanylidene]cyanamide], for which the IC50 against CDK2/CycE came to 835 nM; in the experiment on HeLa cells, 107 nM.

On to `CS(=O)(Cc1cc(F)cc(Nc2ncc(F)c(-c3ccc(F)c4ccoc34)n2)c1)=NC#N` (single isomer, unassigned) [Example 8, [(3-Fluoro-5-{[5-fluoro-4-(4-fluoro-1-benzofuran-7-yl)pyrimidin-2-yl]amino}benzyl)(methyl)-oxido-λ^6-sulfanylidene]cyanamide], for which the IC50 against CDK2/CycE was 812 nM; in the experiment on HeLa cells it was 89 nM.

Take `CS(=N)(=O)Cc1cccc(Nc2ncc(F)c(-c3ccc(F)c4ccoc34)n2)c1` (single isomer, unassigned) [Example 5, 5-Fluoro-4-(4-fluoro-1-benzofuran-7-yl)-N-{3-[(S-methylsulfonimidoyl)-methyl]-phenyl}-pyrimidin-2-amine]: the IC50 against CDK2/CycE was 802 nM; in the experiment with HeLa cells (Homo sapiens, 96 h), 177 nM.

`CS(=N)(=O)Cc1cc(Nc2ncc(F)c(-c3ccc(F)c4ccoc34)n2)cc(S(F)(F)(F)(F)F)c1` (racemic) [Example 18, (rac)-5-Fluoro-4-(4-fluoro-1-benzofuran-7-yl)-N-{3-[(S-methylsulfonimidoyl)methyl]-5-(pentafluoro-λ^6-sulfanyl)phenyl}pyrimidin-2-amine]: the IC50 on CDK2/CycE worked out at 1540 nM; with HeLa cells (Homo sapiens, 96 h), 101 nM.

`CS(=O)(Cc1cc(F)cc(Nc2ncc(F)c(-c3ccc(F)c4ccoc34)n2)c1)=NC#N` (single isomer, unassigned) [Example 9, [(3-Fluoro-5-{[5-fluoro-4-(4-fluoro-1-benzofuran-7-yl)pyrimidin-2-yl]amino}benzyl)(methyl)-oxido-λ^6-sulfanylidene]cyanamide]: the figures for the IC50 against CDK2/CycE and with HeLa cells were 2230 nM and 31 nM, respectively.

Take `CS(=N)(=O)Cc1cccc(Nc2ncc(F)c(-c3ccc(F)c4ccoc34)n2)c1` (racemic) [Example 4, (rac)-5-Fluoro-4-(4-fluoro-1-benzofuran-7-yl)-N-{3-[(S-methylsulfonimidoyl)-methyl]phenyl}-pyrimidin-2-amine]: the IC50 against CDK2/CycE was determined as 510 nM; with HeLa cells (Homo sapiens, 96 h), 297 nM.

Regarding `CS(=O)(Cc1cccc(Nc2ncc(F)c(-c3ccc(F)c4ccoc34)n2)c1)=NC#N` (single isomer, unassigned) [Example 2, [(3-{[5-Fluoro-4-(4-fluoro-1-benzofuran-7-yl)pyrimidin-2-yl]amino}benzyl)(methyl)oxido-λ^6-sulfanylidene]cyanamide], the IC50 against CDK2/CycE was 353 nM; in the experiment on HeLa cells, 100 nM.

Regarding `CS(=O)(Cc1cc(F)cc(Nc2ncc(F)c(-c3ccc(F)c4ccoc34)n2)c1)=NC#N` (racemic) [Example 7, (rac)-[(3-Fluoro-5-{[5-fluoro-4-(4-fluoro-1-benzofuran-7-yl)pyrimidin-2-yl]amino}benzyl)(methyl)-oxido-λ^6-sulfanylidene]cyanamide], the IC50 stood at 652 nM at CDK2/CycE and 50 nM in the experiment on HeLa cells (Homo sapiens, 96 h).

For the compound `CS(=O)(Cc1cccc(Nc2ncc(F)c(-c3ccc(F)c4ccoc34)n2)c1)=NC#N` (racemic) [Example 1, (rac)-[(3-{[5-Fluoro-4-(4-fluoro-1-benzofuran-7-yl)pyrimidin-2-yl]amino}benzyl)(methyl)oxido-λ^6-sulfanylidene]cyanamide], the IC50 was found to be 560 nM at CDK2/CycE and 104 nM in the experiment with HeLa cells (Homo sapiens, 96 h).

Take `CS(=N)(=O)Cc1cc(F)cc(Nc2ncc(F)c(-c3ccc(F)c4ccoc34)n2)c1` (racemic) [Example 10, (rac)-5-Fluoro-4-(4-fluoro-1-benzofuran-7-yl)-N-{3-fluoro-5-[(S-methylsulfonimidoyl)-methyl]-phenyl}-pyrimidin-2-amine]: the IC50 amounted to 1800 nM at CDK2/CycE and 97 nM in the experiment on HeLa cells (Homo sapiens, 96 h).

For the compound `Cc1cc(CS(C)(=O)=NC#N)cc(Nc2ncc(F)c(-c3ccc(F)c4ccoc34)n2)c1` (racemic) [Example 13, (rac)-[(3-{[5-Fluoro-4-(4-fluoro-1-benzofuran-7-yl)pyrimidin-2-yl]amino}-5-methylbenzyl)-(methyl)oxido-λ^6-sulfanylidene]cyanamide], the IC50 came to 1200 nM against CDK2/CycE and 40 nM in the experiment on HeLa cells (Homo sapiens, 96 h).

On to `CS(=O)(Cc1cccc(Nc2ncc(F)c(-c3ccc(F)c4ccoc34)n2)c1)=NC#N` (single isomer, unassigned) [Example 3, [(3-{[5-Fluoro-4-(4-fluoro-1-benzofuran-7-yl)pyrimidin-2-yl]amino}benzyl)(methyl)oxido-λ^6-sulfanylidene]cyanamide], for which the IC50 against CDK2/CycE came out at 475 nM; in the experiment on HeLa cells (Homo sapiens, 96 h), 109 nM.

With `CS(=O)(Cc1cc(Nc2ncc(F)c(-c3ccc(F)c4ccoc34)n2)cc(S(F)(F)(F)(F)F)c1)=NC#N` (racemic) [Example 17, (rac)-{[3-{[5-fluoro-4-(4-fluoro-1-benzofuran-7-yl)pyrimidin-2-yl]amino}-5-(pentafluoro-λ^6-sulfanyl)benzyl](methyl)oxido-λ^6-sulfanylidene}cyanamide], the IC50 against CDK2/CycE was found to be 1460 nM; in the experiment on HeLa cells (Homo sapiens, 96 h), 99 nM.

With `Cc1cc(CS(C)(=O)=NC#N)cc(Nc2ncc(F)c(-c3ccc(F)c4ccoc34)n2)c1` (single isomer, unassigned) [Example 14, [(3-{[5-Fluoro-4-(4-fluoro-1-benzofuran-7-yl)pyrimidin-2-yl]amino}-5-methylbenzyl)-(methyl)oxido-λ^6-sulfanylidene]cyanamide], the IC50 at CDK2/CycE turned out to be 846 nM; in the experiment with HeLa cells (Homo sapiens, 96 h) it was 96 nM.

Turning to `Cc1cc(CS(C)(=N)=O)cc(Nc2ncc(F)c(-c3ccc(F)c4ccoc34)n2)c1` (racemic) [Example 16, (rac)-5-Fluoro-4-(4-fluoro-1-benzofuran-7-yl)-N-{3-methyl-5-[(S-methylsulfonimidoyl)-methyl]phenyl}pyrimidin-2-amine], the IC50 at CDK2/CycE came out at 491 nM; in the experiment with HeLa cells (Homo sapiens, 96 h), 46 nM.

Take `CS(=N)(=O)Cc1cc(F)cc(Nc2ncc(F)c(-c3ccc(F)c4ccoc34)n2)c1` (single isomer, unassigned) [Example 12, 5-Fluoro-4-(4-fluoro-1-benzofuran-7-yl)-N-{3-fluoro-5-[(S-methylsulfonimidoyl)-methyl]-phenyl}-pyrimidin-2-amine]: the IC50 against CDK2/CycE was found to be 1250 nM; in the experiment with HeLa cells, 30 nM.
